Source: US12576103B2 (priority 2020, dated 2026)
Entries after “also recorded” stand apart in the source; their conditions may differ.

How the values were obtained:
ciliary motility = details: cited from earlier work
SARS-COV-2 = experiment: microbe, parasite or virus in culture; format: cell-based; details: for SARS-CoV-2 infectivity of VERO cells: at concentrations which were not cytotoxic
VERO cells = experiment: Non-virus related cytotoxicity in VERO cells by light microscopy; format: cell-based; details: at the inhibiting concentrations (LMWH 125 μM, N-acetylcysteine 25 mM)
Experimental: For experiments in which infectivity was being tested, either VERO cells in media or SARS-COV-2 viral particles were incubated with potential inhibitors for one hour. Then viral particles were added to VERO cells and incubation continued for up to seven days. Cytotoxicity and viral-induced cytopathological effects were examined by light microscopy.
In order to test if AT-H201 had antiviral activity against SARS-COV-2 the standard VERO cells assay was performed. Test compounds were incubated either with the virus, to simulate antibody-like surface binding, or with the cells, to simulate either cell surface changes or to act intracellularly. Serial dilutions were conducted and the cytopathic effect (CPE) was observed by microscopy. Non-virus related cytotoxicity, if present was also noted.

[1] = aqueous solution at physiologic pH; cited from earlier work
[2] = Nebulized anticoagulants in preclinical models for lung injury; format: in vivo
Text: Nebulized anticoagulants attenuate pulmonary coagulopathy in preclinical studies using various models for lung injury. Effects on inflammation are less consistent.

[3] = Phase 1 clinical study of nebulized heparin in volunteers (Example 4)
Experimental: This example describes the safety and efficacy of nebulized heparin and NAC in normal subjects. A Phase 1 clinical study of nebulized heparin is conducted to investigate the safety of increasing doses of a well-defined lower respiratory tract (LRT) dose of inhaled heparin with regard to pulmonary function and coagulation. Ten volunteers inhale heparin from Sidestream jet nebulizers loaded with 100,000, 200,000, 300,000 or 400,000 International Units (ID) of heparin.

[4] = compared with controls
Text: Inhalation injury is a major cause of morbidity and mortality in patients with burns. Presence of airways injury adds to the need of fluid supplementation, increases risk of pulmonary complications. Due to many mechanisms involved in pathophysiology the treatment is complex. Among them the formation of fibrin casts inside airways constitutes a prominent element. The material residing in tracheobronchial tree causes ventilation-perfusion mismatch, complicates mechanical ventilation, provides a medium for bacterial growth. Inhaled anticoagulation regimens employing heparin in management of inhalation injury are tested. Simultaneously safety, especially in connection with possible bleeding risk, is measured.
Data are collected in patients receiving nebulized heparin and in historical controls. Data is analyzed separately with 1) all subjects included and 2) with subjects who died/were discharged on the ventilator excluded.

[5] = Nebulized heparin in patients with pulmonary infection or lung injury (Example 6); format: in vivo
Text: Nebulized heparin also affects various physiologic parameters and other outcomes, in particular during pulmonary infection and inhalation trauma.
Reduction of pulmonary coagulopathy at dosages ≥400,000 U/day heparin is observed.
A single dosage of nebulized heparin prior to cardiopulmonary bypass surgery decreases atelectasis and improves CO2 elimination directly after the operation. Nebulized heparin increases the number of ventilator-free days following administration.

[6] = system: virus that contain PBSC sequences; details: in vitro; cited from earlier work
[7] = nebulized, presence of pulmonary infection or lung injury

Compound: 2-alkyl-4-hydroxyquinolines [pyo compound]
- concentration producing ciliostasis / inhibiting ciliary motility (ciliary motility): 50 µg/mL

Compound: CCN(CCO)CCCC(C)Nc1ccnc2cc(Cl)ccc12 (centres unmarked) [Hydroxychloroquine, hydroxychloroquine]
- inhibition at 16 µM (SARS-COV-2; Severe acute respiratory syndrome coronavirus 2, Vero, at 16 μM, incubation with cells, read-out: Inhibition of Virus Infection): 100%

Compound: CC(=O)N[C@@H](CS)C(=O)O [NAC, N-acetylcysteine]
- inhibition at 25000 µM (SARS-COV-2; Severe acute respiratory syndrome coronavirus 2, Vero, at 25 mM, incubation with cells, read-out: Inhibition of Virus Infection): 100%
- inhibiting viral entry (SARS-COV-2; at 25 mM): effective
- inhibition of infectivity (SARS-COV-2; at 25 mM, incubated with cells): completely inhibit
- SARS-CoV-2 infectivity of VERO cells (SARS-COV-2): inhibited
- inhibition of infectivity (SARS-COV-2; incubated with SARS-COV-2 (virus)): did not inhibit
- Cytotoxicity (VERO cells): not seen

Compound: CCN(CC)/[N+]([O-])=N/O.CCNCC [diethylamine/NO]
- rate of NO release [1]: < 3 min

Compound: NCCN(CCN)/[N+]([O-])=N/O [diethylenetriamine/NO]
- rate of NO release [1]: approximately 20 hours

Compound: danaparoid
- systemic coagulation [2]: reduce

Compound: enoxaparin [LMWH]
- inhibition of SARS-COV-2 infectivity (SARS-COV-2; at 125 μM, SARS-COV-2 incubated with compound before VERO cell exposure): complete inhibition
- inhibition of viral cytopathic effects / SARS-COV-2 infectivity (SARS-COV-2; at nanomolar concentrations, incubated with the virus or with the cells): completely inhibiting; also recorded: nanomolar efficacy
- inhibition of infectivity (SARS-COV-2; either incubated with the virus or incubated with the cells): effective
- Cytotoxicity (VERO cells): not seen

Compound: heparin
- Peak anti-Xa activity ([3]; 6 h after inhalation of 400,000 ID heparin): 0.113 ID/mL
- APTT maximum ([3]; 6 h after inhalation of 400,000 ID heparin (p=0.05)): 1.03
- anti-Xa compared to baseline values ([3]; after 200,000, 300,000, and 400,000 ID heparin): increases
- safety of inhalation ([3]; delivery of 32,000 IU to the lower respiratory tract): can safely be inhaled
- area under the curve of the anti-Xa activity ([3]; inhaled, 100,000-400,000 IU): increase with increasing doses
- pulmonary function ([3]; inhaled, 100,000-400,000 IU loaded in nebulizer): did not affect
- SARS-CoV-2 infectivity of VERO cells (SARS-COV-2): inhibited
- 28-day mortality [4]: no differences
- hospitalization length [4]: no differences
- lung injury score during the first 7 days post injury [4]: no differences
- ventilator-associated pneumonia rate [4]: no differences
- bleeding incidences ([5]; at dosages ≥100,000 U): without affecting
- dosages at which reduction of pulmonary coagulopathy is observed ([5]; nebulized): ≥ 400,000 U/day
- dosages at which systemic coagulation is affected ([5]; nebulized): ≥ 100,000 U
- mortality ([5]; nebulized): does not increase
- number of ventilator-free days ([5]; nebulized): increases
- physiological parameters, such as arterial oxygenation or pulmonary compliance ([5]; nebulized): does not affect
- systemic bleeding ([5]; nebulized): does not cause; also recorded: does not result in differences
- systemic coagulation ([5]; nebulized): affects
- anticoagulant effect in the lungs [5, 7]: has an anticoagulant effect
- pulmonary inflammation [5, 7]: inhibits
- atelectasis ([5]; single nebulized dosage prior to cardiopulmonary bypass surgery): decreases
- CO2 elimination ([5]; single nebulized dosage prior to cardiopulmonary bypass surgery, directly after the operation): improves
- infectivity of virus that contain PBSC sequences [6]: blocks infectivity
- systemic coagulation [2]: reduce

Compound: rhamnolipid
- effect of limited exposure of tracheal explants (ciliary motility; associated with altered ciliary membranes): ciliostasis
